pKi: −log10 of the molar value.
What follows are molecules tested against T1, SpiCA3 (Stylophora pistillata, UniProt A0A1B0Y357) (assay: stopped-flow CO2 hydration, phenol red, Cheng-Prusoff). Conditions: not given.
T1 construct: gene CA3
T1 sequence (A0A1B0Y357 1-258): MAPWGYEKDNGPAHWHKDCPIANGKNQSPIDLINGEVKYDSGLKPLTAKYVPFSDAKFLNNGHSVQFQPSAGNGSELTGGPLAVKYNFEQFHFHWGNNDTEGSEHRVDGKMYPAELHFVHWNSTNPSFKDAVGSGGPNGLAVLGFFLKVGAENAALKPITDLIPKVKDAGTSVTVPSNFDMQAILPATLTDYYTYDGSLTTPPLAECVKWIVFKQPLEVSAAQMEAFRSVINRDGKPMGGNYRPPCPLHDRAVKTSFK
Format: biochemical

Row | Structure (SMILES) | pKi
1 | Cl [Cl^−] | 3.29
2 | O=C(O)O [HCO3^−] | 3.40
3 | S [HS^−] | 3.47
4 | I [I^−] | 3.25
5 | [N-]=[N+]=[N-] [N3^−] | 4.10
6 | O=NO [NO2^−] | 3.35
7 | OB(O)c1ccccc1 [Ph-B(OH)2] | < 1.00
8 | N#C[SeH] [SeCN^−] | 3.82
9 | O=S(=O)(O)C(F)(F)F [Triflate] | 3.54

Same assay, conditions: read-out: KI [mM] ^# / SpiCA3 ^c

Row | Structure (SMILES) | Ki [mM]
10 | S=C(S)S [CS3^2^−] | 0.47
11 | CCN(CC)C(=S)S [Et2NCS2^−] | 0.044
12 | NS(N)(=O)=O [H2NSO2NH2] | 0.0007
13 | NS(=O)(=O)O [H2NSO3H] | > 100

Source: article PMC6073313, “Comparison of the Anion Inhibition Profiles of the α-CA Isoforms (SpiCA1, SpiCA2 and SpiCA3) from the Scleractinian Coral Stylophora pistillata” (International Journal of Molecular Sciences, 2018)
